Results: ChEMBL document CHEMBL3804787, “Electrophilic Oxidation and [1,2]-Rearrangement of the Biindole Core of Birinapant” (ACS Med Chem Lett, 2016)

Key:
[1] = Drug level using Birinapant assessed as compound formation by HPLC analysis; assay type: physicochemical
[2] = Drug degradation of the compound at 40 degC/75% RH measured after 1 year by HPLC analysis; assay type: physicochemical; settings: read-out: Drug degradation

Row | SMILES | Drug metabolism [1] | degraded at 8766 h [2] [%]
1 | CC[C@H](NC(=O)[C@H](C)NC)C(=O)N1C[C@@H](O)C[C@H]1C[C@@]1(O)C(c2[nH]c3cc(F)ccc3c2C[C@H]2C[C@@H](O)CN2C(=O)[C@@H](CC)NC(=O)[C@@H](C)NC)=Nc2cc(F)ccc21 | metabolite_detected | –
2 | CC[C@H](NC(=O)[C@H](C)NC)C(=O)N1C[C@@H](O)C[C@H]1C[C@]1(O)C(c2[nH]c3cc(F)ccc3c2C[C@H]2C[C@@H](O)CN2C(=O)[C@@H](CC)NC(=O)[C@@H](C)NC)=Nc2cc(F)ccc21 | metabolite_detected | –
3 | CC[C@H](NC(=O)[C@H](C)NC)C(=O)N1C[C@@H](O)C[C@H]1Cc1c([C@@]2(C[C@@H]3C[C@H](O)CN3C(=O)[C@H](CC)NC(=O)[C@H](C)NC)Nc3cc(F)ccc3C2=O)[nH]c2cc(F)ccc12 | metabolite_detected | –
4 | CC[C@H](NC(=O)[C@H](C)NC)C(=O)N1C[C@@H](O)C[C@H]1Cc1c(-c2[nH]c3cc(F)ccc3c2C[C@@H]2C[C@H](O)CN2C(=O)[C@H](CC)NC(=O)[C@H](C)NC)[nH]c2cc(F)ccc12 [BIRINAPANT] | – | > 0.1
5 | CC[C@H](NC(=O)[C@H](C)NC)C(=O)N1C[C@@H](O)C[C@H]1Cc1c([C@]2(C[C@@H]3C[C@H](O)CN3C(=O)[C@H](CC)NC(=O)[C@H](C)NC)Nc3cc(F)ccc3C2=O)[nH]c2cc(F)ccc12 | metabolite_detected | –
